Source: patent EP0373216A1, “CEPHALOSPORIN COMPOUNDS OR THEIR SALTS, PROCESS FOR THEIR PREPARATION, AND PARMACEUTICAL COMPOSITIONS” (TEIJIN LIMITED, priority 1987, dated 1988)
Converted amounts (≈) assume the structure as drawn. Where two headings read alike, the source gives them in different places.

What was measured:
Assay in all cases: In vitro antibacterial activity, agar disc dilution method
Assay type in all cases: cell-based
B. subtilis ATCC 6633 = details: Bacillus subtilis, read-out: minimum growth inhibitory concentration (MIC)
Protocol: (§1) An in vitro antibacterial activity was measured by an agar disc dilution method.
(§2) Varied test bacteria were cultivated overnight in triptophane-soybroth. A Mueller Hinton agar containing the compound of this invention in varied concentrations was streaked with one platinum loopful of each of the bacteria (number of living cells 10^6/ml).

E. cloacae 963 = details: read-out: minimum growth inhibitory concentration (MIC)
Protocol: as §1, §2

E. coli K12C600 = details: Escherichia coli, read-out: minimum growth inhibitory concentration (MIC)
Protocol: as §1, §2

K. pneumoniae PC I 602 = details: Klebsiella pneumoniae, read-out: minimum growth inhibitory concentration (MIC)
Protocol: as §1, §2

M. euteus ATCC 9341 = details: read-out: minimum growth inhibitory concentration (MIC)
Protocol: as §1, §2

P. aeruginosa NCTC 1049 = details: Pseudomonas aeruginosa, read-out: minimum growth inhibitory concentration (MIC)
Protocol: as §1, §2

P. morganii IFO 3445 = details: Morganella morganii, read-out: minimum growth inhibitory concentration (MIC)
Protocol: as §1, §2

P. rettgeric IFO3850 = details: read-out: minimum growth inhibitory concentration (MIC)
Protocol: as §1, §2

P. vulgalis OX-19 = details: read-out: minimum growth inhibitory concentration (MIC)
Protocol: as §1, §2

S. aureus Terajima = details: Staphylococcus aureus, read-out: minimum growth inhibitory concentration (MIC)
Protocol: as §1, §2

S. enteritidis G14 = details: Salmonella enterica, read-out: minimum growth inhibitory concentration (MIC)
Protocol: as §1, §2

S. marcescens I AM 1184 = details: Serratia marcescens, read-out: minimum growth inhibitory concentration (MIC)
Protocol: as §1, §2

S. pyogenes Cook = details: Streptococcus pyogenes, read-out: minimum growth inhibitory concentration (MIC)
Protocol: as §1, §2

S. typhic 901 = details: Mueller Hinton agar, 10^6/ml, 37°C for 16 hours, read-out: minimum growth inhibitory concentration (MIC)
Protocol: as §1, §2

[1] = ATCC6633, B. subtilis ATCC 6633, Mueller Hinton agar, 10^6/ml, 37°C for 16 hours
[2] = Enterobacter cloacae, E. cloacae 963, Mueller Hinton agar, 10^6/ml, 37°C for 16 hours
[3] = E. coli K12C600, Mueller Hinton agar, 10^6/ml, 37°C for 16 hours
[4] = PCI602, K. pneumoniae PC I 602, Mueller Hinton agar, 10^6/ml, 37°C for 16 hours
[5] = M. euteus ATCC 9341, Mueller Hinton agar, 10^6/ml, 37°C for 16 hours
[6] = NCTC1049, P. aeruginosa NCTC 1049, Mueller Hinton agar, 10^6/ml, 37°C for 16 hours
[7] = IFO3445, P. morganii IFO 3445, Mueller Hinton agar, 10^6/ml, 37°C for 16 hours
[8] = P. rettgeric IFO3850, Mueller Hinton agar, 10^6/ml, 37°C for 16 hours
[9] = P. vulgalis OX-19, Mueller Hinton agar, 10^6/ml, 37°C for 16 hours
[10] = S. aureus Terajima, Mueller Hinton agar, 10^6/ml, 37°C for 16 hours
[11] = S. enteritidis G14, Mueller Hinton agar, 10^6/ml, 37°C for 16 hours
[12] = IAM1184, S. marcescens I AM 1184, Mueller Hinton agar, 10^6/ml, 37°C for 16 hours
[13] = S. pyogenes Cook, Mueller Hinton agar, 10^6/ml, 37°C for 16 hours

SMILES | MIC (S. typhic 901) | MIC (B. subtilis ATCC 6633; [1]) | MIC (E. cloacae 963; [2]) | MIC (E. coli K12C600; [3]) | MIC (K. pneumoniae PC I 602; [4]) | MIC (M. euteus ATCC 9341; [5]) | MIC (P. aeruginosa NCTC 1049; [6]) | MIC (P. morganii IFO 3445; [7]) | MIC (P. rettgeric IFO3850; [8]) | MIC (P. vulgalis OX-19; [9]) | MIC (S. aureus Terajima; [10]) | MIC (S. enteritidis G14; [11]) | MIC (S. marcescens I AM 1184; [12]) | MIC (S. pyogenes Cook; [13]) | other results
CC(C)(O/N=C(\C(=O)N[C@@H]1C(=O)N2C(C(=O)[O-])=C(C[n+]3ccccc3)CS[C@H]12)c1csc(N)n1)C(=O)O [CAZ, Ceftazidime, reference compound] | 0.1 µg/mL (≈ 0.183 µM) | – | – | – | – | – | – | – | – | – | – | – | – | – | MIC (B. subtilis ATCC 6633; ATCC6633, 16 h): 3.1 µg/mL (≈ 5.67 µM); MIC (E. cloacae 963; Enterobacter cloacae, 963, 16 h): 0.1 µg/mL (≈ 0.183 µM); MIC (E. coli K12C600; K12C600, 16 h): 0.2 µg/mL (≈ 0.366 µM); MIC (K. pneumoniae PC I 602; PCI602, 16 h): 0.1 µg/mL (≈ 0.183 µM); MIC (M. euteus ATCC 9341; 16 h): 1.6 µg/mL (≈ 2.93 µM); MIC (P. aeruginosa NCTC 1049; NCTC1049, 16 h): 0.8 µg/mL (≈ 1.46 µM); MIC (P. morganii IFO 3445; IFO3445, 16 h): 0.01 µg/mL (≈ 0.0183 µM); MIC (P. rettgeric IFO3850; 16 h): 0.01 µg/mL (≈ 0.0183 µM); MIC (P. vulgalis OX-19; 16 h): 0.01 µg/mL (≈ 0.0183 µM); MIC (S. aureus Terajima; 16 h): 3.1 µg/mL (≈ 5.67 µM); MIC (S. enteritidis G14; ENTERITIDIS, 16 h): 0.1 µg/mL (≈ 0.183 µM); MIC (S. marcescens I AM 1184; IAM1184, 16 h): 0.03 µg/mL (≈ 0.0549 µM); MIC (S. pyogenes Cook; 16 h): 1.6 µg/mL (≈ 2.93 µM)
CC(C)(O/N=C(\C(=O)N[C@@H]1C(=O)N2C(C(=O)[O-])=C(C[n+]3ccc4cc(O)c(O)cc4c3)CS[C@H]12)c1csc(N)n1)C(=O)O [Compound A, (6R,7R)-7-[(Z)-2-(2-amino-l,3-thiazol-4-yl)-2-(2-carboxypropyl-2-yloxyimino)acetamide]-3-(6,7-dihydroxy-2-isoquinolinium)methyl-3-cephem-4-carboxylate, reference compound] | < 0.01 µg/mL | 0.4 µg/mL (≈ 0.636 µM) | < 0.01 µg/mL | < 0.01 µg/mL | < 0.01 µg/mL | 0.2 µg/mL (≈ 0.318 µM) | 0.02 µg/mL (≈ 0.0318 µM) | < 0.01 µg/mL | < 0.01 µg/mL | < 0.01 µg/mL | 6.2 µg/mL (≈ 9.86 µM) | < 0.01 µg/mL | < 0.01 µg/mL | 1.6 µg/mL (≈ 2.55 µM) | –
Nc1nc(/C(=N/Oc2ccccc2)C(=O)N[C@@H]2C(=O)N3C(C(=O)[O-])=C(C[n+]4ccc5cc(O)c(O)cc5c4)CS[C@H]23)cs1 [Compound I, (6R,7R)-7-[(Z)-2-(2-amino-1,3-thiazol-4-yl)-2-phenoxy-iminoacetamide]-3-(6,7-dihydroxy-2-isoquinolinium)methyl-3-cephem-4-carboxylate] | < 0.01 µg/mL | 0.1 µg/mL (≈ 0.162 µM) | < 0.01 µg/mL | < 0.01 µg/mL | < 0.01 µg/mL | 0.1 µg/mL (≈ 0.162 µM) | 0.1 µg/mL (≈ 0.162 µM) | < 0.01 µg/mL | < 0.01 µg/mL | < 0.01 µg/mL | 0.8 µg/mL (≈ 1.29 µM) | < 0.01 µg/mL | < 0.01 µg/mL | 0.2 µg/mL (≈ 0.323 µM) | –
Nc1nc(/C(=N/Oc2ccccc2Cl)C(=O)N[C@@H]2C(=O)N3C(C(=O)[O-])=C(C[n+]4ccc5cc(O)c(O)cc5c4)CS[C@H]23)cs1 [Compound II, (6R,7R)-7-[(Z)-2-(2-amino-1,3-thiazol-4-yl)-2-(o-chlorophenoxyimino)-acetamide]-3-(6,7-dihydroxy-2-isoquinolinium)methyl-3-cephem-4-carboxylate] | < 0.01 µg/mL | 1.6 µg/mL (≈ 2.45 µM) | < 0.01 µg/mL | < 0.01 µg/mL | < 0.01 µg/mL | 0.8 µg/mL (≈ 1.22 µM) | 0.8 µg/mL (≈ 1.22 µM) | < 0.01 µg/mL | < 0.01 µg/mL | < 0.01 µg/mL | 0.2 µg/mL (≈ 0.306 µM) | < 0.01 µg/mL | < 0.01 µg/mL | 0.2 µg/mL (≈ 0.306 µM) | –
Nc1nc(/C(=N/Oc2ccc(Cl)cc2)C(=O)N[C@@H]2C(=O)N3C(C(=O)[O-])=C(C[n+]4ccc5cc(O)c(O)cc5c4)CS[C@H]23)cs1 [Compound III] | < 0.01 µg/mL | 0.4 µg/mL (≈ 0.612 µM) | 0.03 µg/mL (≈ 0.0459 µM) | < 0.01 µg/mL | < 0.01 µg/mL | 0.2 µg/mL (≈ 0.306 µM) | 0.8 µg/mL (≈ 1.22 µM) | 0.01 µg/mL (≈ 0.0153 µM) | < 0.01 µg/mL | < 0.01 µg/mL | 0.8 µg/mL (≈ 1.22 µM) | < 0.01 µg/mL | < 0.01 µg/mL | 0.1 µg/mL (≈ 0.153 µM) | –
Nc1nc(/C(=N/Oc2ccc(-c3ccccc3)cc2)C(=O)N[C@@H]2C(=O)N3C(C(=O)[O-])=C(C[n+]4ccc5cc(O)c(O)cc5c4)CS[C@H]23)cs1 [Compound IV, (6R,7R)-7-[(Z)-2-(2-amino-1,3-thiazol-4-yl)-2-(p-phenylphenoxy)iminoacetamide]-3-(6,7-dihydroxy-2-isoquinolinium)methyl-3-cephem-4-carboxylate] | < 0.01 µg/mL | 1.6 µg/mL (≈ 2.3 µM) | < 0.01 µg/mL | 0.02 µg/mL (≈ 0.0288 µM) | 0.02 µg/mL (≈ 0.0288 µM) | 0.8 µg/mL (≈ 1.15 µM) | 0.8 µg/mL (≈ 1.15 µM) | < 0.01 µg/mL | < 0.01 µg/mL | < 0.01 µg/mL | 1.6 µg/mL (≈ 2.3 µM) | 0.02 µg/mL (≈ 0.0288 µM) | < 0.01 µg/mL | 0.4 µg/mL (≈ 0.576 µM) | –
CC(=O)Oc1cc2cc[n+](CC3=C(C(=O)[O-])N4C(=O)[C@@H](NC(=O)/C(=N\Oc5ccccc5)c5csc(N)n5)[C@H]4SC3)cc2cc1OC(C)=O [Compound IX, (6R,7R)-7-[(Z)-2-(2-amino-1,3-thiazol-4-yl)-2-phenoxyiminoacetamide]-3-(6,7-diacetoxy-2-isoquinolinium)methyl-3-cephem-4-carboxylate] | < 0.01 µg/mL | 0.8 µg/mL (≈ 1.14 µM) | 0.02 µg/mL (≈ 0.0285 µM) | 0.01 µg/mL (≈ 0.0142 µM) | < 0.01 µg/mL | 1.6 µg/mL (≈ 2.28 µM) | 0.1 µg/mL (≈ 0.142 µM) | < 0.01 µg/mL | < 0.01 µg/mL | < 0.01 µg/mL | 1.6 µg/mL (≈ 2.28 µM) | 0.02 µg/mL (≈ 0.0285 µM) | < 0.01 µg/mL | 0.4 µg/mL (≈ 0.569 µM) | –
Nc1nc(/C(=N/Oc2ccccc2)C(=O)N[C@@H]2C(=O)N3C(C(=O)[O-])=C(C[n+]4cc(C(=O)O)c5cc(O)c(O)cc5c4Cl)CS[C@H]23)cs1 [Compound VII, (6R,7R)-7-[(Z)-2-(2-amino-1,3-thiazol-4-yl)-2-phenoxyiminoacetamide]-3-(l-chloro-4-carboxy-6,7-dihydroxy-2-isoquinolinium)methyl-3-cephem-4-carboxylate] | – | 1.6 µg/mL (≈ 2.3 µM) | 0.1 µg/mL (≈ 0.143 µM) | 0.03 µg/mL (≈ 0.043 µM) | 0.03 µg/mL (≈ 0.043 µM) | 0.8 µg/mL (≈ 1.15 µM) | 1.6 µg/mL (≈ 2.3 µM) | 0.03 µg/mL (≈ 0.043 µM) | 0.03 µg/mL (≈ 0.043 µM) | 0.02 µg/mL (≈ 0.0287 µM) | 3.1 µg/mL (≈ 4.45 µM) | 0.02 µg/mL (≈ 0.0287 µM) | 0.03 µg/mL (≈ 0.043 µM) | 0.4 µg/mL (≈ 0.574 µM) | –
